In patent US12203099B2, “Methods of expanding cholangiocytes” (Cambridge Enterprise Limited, priority 2017, dated 2025):

System: ECOs
Test: Response to secretin and somatostatin (organoid diameter)
Format: cell-based, human
Conditions: ECOs exposed to secretin, compared to untreated controls
Description: Responses to secretin and somatostatin were assessed as described in Sapazoits F, et al. (Biotechnol. 2015 1-11).
We then further characterized ECOs by focusing on their function following long-term culture (20 passages). The biliary epithelium regulates the homeostasis of bile through the transport of ions, water and bile acids. The secretory capacity of ECOs was interrogated using Rhodamine-123, a fluorescent substrate for the cholangiocyte surface glycoprotein Multidrug Resistance protein-1 (MDR1) (FIGS. 10 and 11). […]. […] The response of ECOs to secretin and somatostatin was also assessed. Secretin promotes water secretion, distending the bile duct lumen, while somatostatin negates the effects of secretin.

Question: For secretin, which organoid diameter is on record?
Answer: increased their diameter compared to untreated controls
